Experimental findings from US20220167645A1, “METHODS OF IMPROVING FISH FEED CONVERSION RATE AND SURVIVAL” (AQUINOVO LTD., priority 2019, published 2022) are described below.

Values joined by “and” are separate entries in the source; they are usually repeats but may differ in a detail not shown here. Identical values can stand only once. Numbered stars: 1 amine (or outer) side, 2 acyl side, 3 side chain; on linkers, the order of the positions; unused ones are H or OH. Square brackets hold non-standard residues; d marks the D form. Suc = O=C(CCC(=O)[*:2])[*:1]; NMeV = CN[C@H](C(=O)O)C(C)C; βAla = NCCC(=O)O

The test system of one data set is Tilapia fish. Description: Experiment #1: tilapia fed AN6-coated feed in two phases (growth, biomass, mortality, FCR). Format: in vivo. How it is done:
MeM (powder, manufactured by Bern Aqua), Nanolis P1, P2 (pellet sizes of 0.8-1 mm, 1-1.5 mm, respectively, manufactured by Ocialis) and Tilaphi 1, 2 & 3 (pellet sizes of 1-1.5 mm, 2 mm, 3-5.5 mm, respectively, manufactured by Ocialis) were used as basic regular feed. The basic feed was coated according to the following general procedure: 9 ml or 3 ml of Tris-HCl solution (50 mM, pH=8.8) were diluted to 60 ml with distilled H2O. For AN6-containing feed preparation, desired amounts of AN6 peptide (a TK antagonist having the sequence Succ-Asp-Ser-D-Trp—N(Me)Val-βAla-Leu-Met-NH2, SEQ ID NO. 6) were dissolved in the Tris-HCl solution. Then, each of the various solutions was mixed with 3 Kg of basic feed pellets using an electric mixer. The peptide-feed mixtures where then dried either in oven at 40° C. for 24 hours or in drying drum for few hours to form coated pellets. The total amount of each feed was 3 Kg.
Tilapia fish (n=3600) have been raised from age 10 to 106 days post-hatch (dph) in indoor tanks kept under artificial lightening (12 h light; 12 h dark), and then transferred to cages in ponds for 160 days (total 8-9 months). The fish were fed to apparent satiation 2-4 times a day, for about 90 days (10-106 dph, Phase 1), either with regular feed (Feed A, Group A, n=600 in 3 repeats) or with feed coated with AN6 peptide solution in a ratio of 10 mg AN6/Kg feed (10 ppm, Feed C, Group B, n=600 in 3 repeats). In the second phase, fish in group B were fed for 50 days (207-257 dph, Phase 2) with feed coated with AN6 peptide solution, in a ratio of 30 mg AN6/Kg feed (30 ppm, Feed D, Group B). Between days 107 and 206 the fish received control feed (feed A).
During the experiment period, the average fish weight was measured, and the daily growth rate was calculated by dividing the average weight gained in each measuring period by the number of days since the last measurement. […] This effect was also evident in the daily growth rate (FIG. 1, experiment #1). The relatively low growth rate measured in the initial phase of this experiment probably stemmed from high stocking density in tanks system in the initial period (Phase 1, Table 2, until day 106 post-hatch). This growth restriction was fully compensated in the larger cages in ponds (178 dph) where stocking density was much lower (from 106 dph, <10 Kg fish/m3).
During the experiments described above, dead fish were removed from tanks before each feeding, and then counted and weighed. Dead fish were not replaced after the beginning of the experiment. In the cage systems, in which dead fish are undetectable, actual mortality was estimated by the difference between initial and final count.
During the experiment described in example 2 (experiment #1), the fish were exposed to high stocking densities in indoor tanks (13-130 kg/m^3, 83-106 dph, Table 2, FIG. 7). High stocking density is known as a major fish stressor resulting, inter alia, in chronic increase in Cortisol levels, reduced growth, changes in behavior and inhibition of immune performance. Although mortality in these tanks was not high, a significant increase in mortality was observed following fish transfer to the pond (FIG. 7, 17.5%±2.4 mortality, x±SE).
In order to determine the efficiency of feed conversion into fish substance in experiments (#1, #2, #3), FCR values which reflect the amount of feed needed to grow a kilogram fish, were calculated for each period and for the entire fish growth period. In order to determine the amount of consumed feed, the amount of feed provided was measured daily for each tank and the leftovers were collected, weighted and subtracted from the total amount of feed. Dead fish were removed every day before each feeding and then counted and weighed for accurate calculation of feed intake and FCR. […]

Data set [1] can be described thus: AN6 half-life in blood and residual peptide in muscle and plasma. To be noted: in vivo.
Where [2] appears, read: 10 mg AN6/Kg feed 10-106 dph, first 200 days of experiment, vs control.

On to “Succ-Asp-Ser- D-Trp -N(Me)Val-βAla-Leu-Met-NH2 (Suc-DS[dW][NMeV][βAla]LM-NH2; SMILES CSCC[C@H](NC(=O)[C@H](CC(C)C)NC(=O)CCNC(=O)[C@H](C(C)C)N(C)C(=O)[C@@H](Cc1c[nH]c2ccccc12)NC(=O)[C@H](CO)NC(=O)[C@H](CC(=O)O)NC(=O)CCC(=O)O)C(N)=O) [AN6]”, for which, in the data set on Tilapia fish (setting [2]), the daily growth rate entry is “no differences” and the fish average weight entry is “no differences”. In the data set with Tilapia fish (10 and 30 mg AN6/Kg feed (experiment #1)), the “FCR and growth performance” value was “both improved FCR and growth performance”. For the same substance, the “number of fish in the upper 6.5th decile” value in the data set with Tilapia fish (AN6 treatment group (control 6%)) is given as 12%. In addition, in the data set on Tilapia fish (AN6 treatment group (control 9%)), the “number of fish in the lower 2th decile” value is 7%. Moreover, in the data set with Tilapia fish (after high stocking density in tanks, control 17.5%±2.4, FIG. 7), the “mortality following fish transfer to the pond (x±SE)” value was 10.5%±1.8. The increased total biomass result with Tilapia fish (experiment #1, FIG. 3A, vs control) is listed as “+18%”. The “reduction of fish mortality as compared to the control groups” value with Tilapia fish (in the pond, FIG. 7) came to 8.5%. The “weight gained normalized according to the initial body weight, difference compared to the control group” value in the data set on Tilapia fish (second phase of the experiment (FIG. 2A)) is 6% and 9%. Moreover, in data set [1], the cleared from blood is given as around 4.5 min; the “half-life time in blood” value is recorded as “very short”; the “peptide residual in muscle and blood after treatment” value is on record as “no peptide residual is detected”; the “residual peptide in muscle and plasma following treatment” value is “non residual peptide was observed”.
